In patent US20140088114A1, “FUSED BICYCLIC KINASE INHIBITORS” (OSI Pharmaceuticals ,LLC, priority 2011, published 2014):
Read-outs that look alike come from different tables or passages of the source.

Experiments:
RON = target: T1, RON (Homo sapiens, UniProt Q04912); assay: sfRON cell mechanistic assay (HeLa), phosphorylated RON; assay type: cell-based
T1 construct: expressed in transfected cells; host or cells: HeLa
T1 sequence (Q04912 913-1400 limits assumed): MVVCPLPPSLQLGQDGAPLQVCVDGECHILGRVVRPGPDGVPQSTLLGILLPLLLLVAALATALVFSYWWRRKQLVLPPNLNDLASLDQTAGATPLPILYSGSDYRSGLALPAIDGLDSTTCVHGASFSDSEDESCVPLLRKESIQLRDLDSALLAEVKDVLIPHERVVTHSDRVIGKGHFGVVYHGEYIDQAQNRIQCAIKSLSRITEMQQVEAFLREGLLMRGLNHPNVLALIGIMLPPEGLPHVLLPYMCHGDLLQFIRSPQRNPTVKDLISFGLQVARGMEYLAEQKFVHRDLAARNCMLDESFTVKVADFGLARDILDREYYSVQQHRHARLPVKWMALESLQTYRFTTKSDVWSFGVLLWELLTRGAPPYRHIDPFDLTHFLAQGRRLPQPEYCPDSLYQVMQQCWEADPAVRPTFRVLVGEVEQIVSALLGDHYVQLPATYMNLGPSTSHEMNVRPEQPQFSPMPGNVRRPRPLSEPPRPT
Procedure: The cellular activity of the compounds of the present invention against RON may be determined by the following procedure. HeLa cells were plated in Falcon 3072 96-well plates in growth media (DMEM, 10% FBS, 1% L-glutamine) at a density of 10000 cells/well and incubated at 37° C., 5% CO2 overnight. The following day, cells were transfected with 0.2 μg sfRON-pcDNA plasmid DNA with 0.5 μL Lipofectamine2000 per well in the presence of 50 μL OPTI-MEM, incubated at 37° C., 5% CO2 overnight. Costar 3915 96-well assay plates were coated with rabbit Anti-RON antibody at 2.0 μg/mL, sealed, and incubated overnight at 4° C. On the third day, coated plates were washed with PBS and blocked with 3% BSA. For the sfRON transfected cells, one-tenth volume of a 10× concentration of compounds was added to the wells in a 6-point dilution series. The dilution series was composed of an initial 1:5 dilution of a 10 mM DMSO stock solution of compound in DMSO, followed by a 1:10 dilution in growth media, for a final DMSO concentration on cells of 0.5%. Control wells were treated with 0.5% DMSO. The typical range of dilution was 10 μM to 3 nM. Once compound was added to the cells, plates were incubated for four hours at 37° C., 5% CO2. Plates were then washed in PBS, and lysed in triton-based lysis buffer. Lysates were transferred to the blocked capture plates. The phosphorylated RON levels were measured by incubating with a Goat polyclonal antibody against phosphorylated RON ([pYpY1238/1239]) followed by an anti-Goat antibody conjugated to HRP. Signal was measured on a Wallac Victor plate reader with luminance. The DMSO signal of the control wells was defined as 100% and the percent of inhibition of phosphorylated RON was expressed as percent of control. IC50 values were determined from the percent of control data using a standard four-parameter model.
(§1) The IC50 values of exemplary compounds of the present invention determined in a sfRON cell mechanistic assay using the HeLa cell line according to the procedures described herein in at least duplicate experiments are abbreviated as follows and are shown in Table 3: A, IC50≦0.03 μM; B, 0.03 μM<IC50≦0.1 μM; C, 0.1 μM<IC50≦1 μM; D, 1 μM<IC50≦3 μM; ND, not determined. The Example # of Table 3 corresponds to the compound example number as illustrated in the Examples section.

MKN45 cells = assay: MKN45 cell proliferation assay (CellTiter-Glo); assay type: cell-based; settings: Homo sapiens, MKN-45, 72 h; MKN45 cell line, 3 days incubation, at least duplicate experiments; read-out: Prolif. IC50
Procedure: The effect of inhibitors on the proliferation of MKN45 cells was determined using the following protocol. MKN45 cells were plated in Corning 3917 96-well white tissue culture treated plates in growth medium (RPMI, 10% FCS) at a density of 5000 cells/well in a total volume of 135 μL and incubated at 37° C., 5% CO2, 95% humidity overnight. The following day, one-tenth volume of a 10× concentration of compounds was added to the wells in an 8-point dilution series. The dilution series was composed of an initial 1:5 dilution of a 10 mM stock of compound in DMSO, followed by serial 1:4 dilutions in DMSO, then a 1:20 dilution in growth medium prior to the 1:10 dilution into the cell plate. Final DMSO concentration on the cells was 0.1%, there were control wells treated with both 0.1% DMSO and no DMSO. The typical dilution range is 10 μM to 0.6 nM. Once the compound was added to the cells, plates were incubated for 3 days at 37° C., 5% CO2 at 95% humidity. On the third day, after allowing all cells and reagents to come to room temperature, 25 μL of CellTiter-Glo reagent (Promega #G7573) was added to the wells. Plates were shaken on a platform for 10 minutes prior to reading luminescence for 0.1 seconds. The signal of the control wells was taken as 100% growth and growth inhibition was expressed as percent of control. IC50 values were determined from the percent of control data using a standard four-parameter model.
as §1, with “a” for “a sfRON”, “cell proliferation” for “cell mechanistic”, “the MKN45” for “the HeLa”, “Table 2:” for “Table 3:”, “Table 2” for “Table 3”, “section. […]” for “section.”

[1] = Table 6: comparison X = C1-3haloalkyl vs. X = C1-3alkyl, read-out: sfRON cell mechanistic
[2] = sfRON transfected HeLa cells, four hours incubation, inhibition of phosphorylated RON, at least duplicate experiments, read-out: sfRON mech IC50

Compound | IC50 (RON; [1]) | IC50 (RON; [2]) | IC50 (MKN45 cells)
COc1ccc(F)c(Cl)c1[C@@H](CF)c1c[nH]c2ncc(-c3cnn([C@H]4CC[C@H](O)CC4)c3)cc12 [Example 3, trans-4-(4-{3-[(1S)-1-(2-chloro-3-fluoro-6-methoxyphenyl)-2-fluoroethyl]-1H-pyrrolo[2,3-b]pyridin-5-yl}-1H-pyrazol-1-yl)cyclohexanol] | 30 to 100 nM | 30 to 100 nM | 100 to 1000 nM
Cn1cc(-c2cnc3[nH]cc(C(CF)c4c(Cl)ccc(F)c4Cl)c3c2)cn1 (centres unmarked) [Example 1, 3-[1-(2,6-Dichloro-3-fluorophenyl)-2-fluoroethyl]-5-(1-methyl-1H-pyrazol-4-yl)-1H-pyrrolo[2,3-b]pyridine] | 100 to 1000 nM | 100 to 1000 nM | 100 to 1000 nM
O[C@H]1CC[C@H](n2cc(-c3cnc4[nH]cc([C@H](CF)c5c(OC(F)F)ccc(F)c5Cl)c4c3)cn2)CC1 [Example 5, trans-4-[4-(3-{(1S)-1-[2-Chloro-6-(difluoromethoxy)-3-fluorophenyl]-2-fluoroethyl}-1H-pyrrolo[2,3-b]pyridin-5-yl)-1H-pyrazol-1-yl]cyclohexanol] | ≤ 30 nM | ≤ 30 nM | –
O[C@H]1CC[C@H](n2cc(-c3cnc4[nH]cc([C@@H](CF)c5c(OC(F)F)ccc(F)c5Cl)c4c3)cn2)CC1 [Example 4, trans-4-[4-(3-{(1R)-1-[2-Chloro-6-(difluoromethoxy)-3-fluorophenyl]-2-fluoroethyl}-1H-pyrrolo[2,3-b]pyridin-5-yl)-1H-pyrazol-1-yl]cyclohexanol] | 30 to 100 nM | 30 to 100 nM | ≤ 30 nM
